Assay: Thermogravimetric analysis of the quantity of additive encapsulated in microporous or mesoporous material
Settings: for % Encapsulated (g additive/g solid total) × 100: encapsulated in silica by impregnation (Example 1)
[1] = MIL-53 MOF, two steps, 60° C., encapsulation time 1 day
[2] = MIL-53 MOF, two steps, 60° C., encapsulation time 2 days
[3] = MIL-53 MOF, two steps, 60° C., encapsulation time 4 days
[4] = MIL-53 MOF, two steps, 60° C., encapsulation time 7 days
[5] = MIL-88 A (Al) MOF, in-situ encapsulation in one single step (Example 4)
[6] = MIL-88 A (Al) MOF, two steps, encapsulation time 3 days

Row | % Encapsulated (g additive/g dry solid) × 100 [1] [%] | % Encapsulated (g additive/g dry solid) × 100 [2] [%] | % Encapsulated (g additive/g dry solid) × 100 [3] [%] | % Encapsulated (g additive/g dry solid) × 100 [4] [%] | % Encapsulated (g additive/g dry solid) × 100 [5] [%] | % Encapsulated (g additive/g dry solid) × 100 [6] [%] | % Encapsulated (g additive/g solid total) × 100 [%] | SMILES
1 | 19.2 | 22.5 | 25 | 25.1 | 12.2 | 8.9 | 56.9 | CC(C)=CCCC(C)CC(=O)O (stereo not shown) [Citronellic acid, citronellic acid]
2 | 17.2 | 33.4 | 35.3 | 44.0 | 13.4 | 10.6 | 55.7 | CC(C)=CCC/C(C)=C/C(=O)O [Geranic acid, geranic acid]
3 | 22.1 | 32.0 | 29.1 | 36.7 | 10.9 | 11.3 | 55.0 | CC(C)=CCC/C(C)=C/CO [Geraniol, geraniol]
4 | 26.0 | 22.1 | 26.1 | 25.2 | 21.7 | 21.0 | 58.7 | CCCCN(CCC(=O)OCC)C(C)=O [IR3535, ethyl 3-[acetyl(butyl)amino]propanoate]
